Measurements: patent US20170240535A1, “HDAC1/2 INHIBITORS FOR THE TREATMENT OF NEURODEGENERATIVE AND/OR COGNITIVE DISORDERS” (Regenacy Pharmaceuticals, LLC, priority 2016, published 2017)
“Also recorded” adds a separate entry of the source.

Columns and labels:
Format in all cases: in vivo
[1] = Pharmacokinetics in plasma and brain after IV administration; conditions: IV 1 mg/kg, male C57BL/6 mice
Experimental: Male C57Bl/6 mice were fasted overnight. Compounds of the invention were dissolved in dimethyl acetamide at 10 times the final concentration, then Solutol HS 15 (BASF) was added to a final concentration of 10%. Finally 80% saline was added and vortexed to achieve a clear solution. Fifteen animals were injected via the tail vein with 1 mg/kg compound. Blood was collected via retro orbital puncture into K2EDTA tubes at 5 minutes, 15 minutes, 30 minutes, 1 hour, 2 hours, 4 hours, 8 hours and 24 hours after dosing. The blood was centrifuged at 2000 g for 5 minutes at 4° C. to obtain plasma. The plasma was extracted with acetonitrile and the level of compound was analyzed by LC/MS/MS. The level of compound in plasma was calculated from a standard curve in mouse plasma. For brain levels, animals were sacrificed at 5 minutes, 15 minutes, 1 hour, 4 hours and 24 hours. Brains were removed and homogenized in acetonitrile and extracted. The level of compound in brain was calculated from a standard curve in mouse brain tissue. The IV clearance and area under the curve were calculated using WinNonLin software. The ratio of area under the curve for plasma and brain samples was calculated to produce the brain/plasma ratio.

[2] = system: APPSwDI/NOS2−/− transgenic mice; assay: Radial arm water maze (RAWM) in APPSwDI/NOS2−/− model of Alzheimer's disease; conditions: 10 mg/kg orally daily for 4 weeks; for RAWM escape latency / RAWM number of errors: vs vehicle treated transgenic / wild type
Experimental: The ability of HDAC1/2 inhibitor Compound 1 to improve cognitive deficits of APPSwDI/NOS2−/− transgenic mice was tested in the radial arm water maze (RAWM).
The Study was performed on APPSwDI/NOS2−/− transgenic (mouse model of Alzheimer's disease) as well as non-transgenic mice, bred at Charles River (Finland). Animals for the main study are 10.5 months old at start. A total number of 45 transgenic (divided into 22 untreated and 23 treated) and 25 non-transgenic controls are used for the study
Transgenic mice are allocated to two different treatment groups, either treated with vehicle (20% HP-β-CD in water) or Compound 1 (dosage 10 mg/kg) administered orally via gavage daily for 4 weeks total. The application volume is 10 ml/kg/dose whereby each animal is weighed once a week and receives a volume according to its individual actual weight.
Spatial learning capacities of all animals were tested in the Radial Arm Water Maze (RAWM). Briefly a six arm maze was submerged in a pool of water, and a platform was placed at the end of one arm. The mouse received 15 trials per day for 2 days and on each trial was started in a different arm while the arm containing the platform remained the same for each mouse. The first 10 trials were considered training and alternated between a visible and a hidden platform. The final trials for day 1 and all trials on day 2 were tested with a hidden platform. The number of errors (incorrect arm entries) were counted over a 1 min period. The errors were averaged over six trials resulting in 5 blocks for the 2 day period. Latency to find the platform was also recorded, and averaged similarly as the errors.

[3] = Pharmacokinetics of Compound 1 in plasma and brain after IP and PO administration (discrete PK); conditions: male C57BL/6 mice; for Kp / Cmax / Tmax / half-life / AUC(0-inf) / AUC(0-t): mouse; for Kp: brain/plasma, read-out: AUCbrain/AUCplasma; for half-life: read-out: Terminal t1/2 (converted)
Experimental: Male C57Bl/6 mice were fasted overnight. Compound 1 was dissolved in 20% HydroxyPropyl-β-Cyclodextran in water. Fifteen animals per experimental arm were dosed by intraperitoneal injection or by oral gavage. Blood was collected via retro orbital puncture into K2EDTA tubes at 5 minutes, 15 minutes, 30 minutes, 1 hour, 2 hours, 4 hours, 8 hours and 24 hours after dosing. The blood was centrifuged at 2000 g for 5 minutes at 4° C. to obtain plasma. The plasma was extracted with acetonitrile and the level of compound was analyzed by LC/MS/MS. The level of compound in plasma was calculated from a standard curve in mouse plasma. For brain levels, animals were sacrificed at 15 minutes, 1 hour, 4 hours, 8 hours and 24 hours. Brains were removed and homogenized in acetonitrile and extracted. The level of compound in brain was calculated from a standard curve in mouse brain tissue. The maximum concentration, half-life and area under the curve were calculated using WinNonLin software. The ratio of area under the curve for plasma and brain samples was calculated to produce the brain/plasma ratio.

[4] = APPSwDI/NOS2−/− mice, listed as compound 1, 10 mg/kg

## Nc1ccc(-c2ccccc2)cc1NC(=O)c1cc2ccc(N3CCNCC3)cc2cn1 [Compound 1]
[1]
  brain penetrance (from brain/plasma AUC ratios): highly brain penetrant
[1]; brain
  AUCINF: 12187 ng·h/g
  AUClast: 10505 ng·h/g
[1]; mouse, brain/plasma, read-out: AUCbrain/AUCplasma
  Kp: 4.05
[1]; mouse, brain
  Cmax: 675 ng/g
  Tmax: 1 h
  half-life: 9.12 h
[1]; mouse, plasma, PK cassette
  AUC(0-inf): 3010 ng·h/mL
  AUC(0-t): 2680 ng·h/mL
  MRT inf: 10.4 h
  clearance: 5.55 mL/min/kg
  half-life: 7.8 h
[1]; mouse, plasma, PK cassette, read-out: Vss
  Vd: 3.47 L/kg
[2]; APPSwDI/NOS2−/− mice
  tolerability: very well tolerated in all animals
[2]; APPSwDI/NOS2−/− mice, vs vehicle treated transgenic
  learning behavior during training: significantly better learning behavior
[2]; APPSwDI/NOS2−/− mice, 10 mg/kg
  RAWM escape latency: improved escape latency time; also recorded: reversed the increased latency
  RAWM number of errors: decrease in the number of errors; also recorded: reversed the increased latency and number of errors
[2]; [4]
  RAWM escape latency: not statistically different from wild type mice
  RAWM number of errors: not statistically different from wild type mice
[2]; treatment groups
  body weight: no differences in body weight
[3]; IP or PO, 3 and 10 mg/kg
  brain penetrance (from brain/plasma AUC ratios): highly brain penetrant
[3]; brain, IP 3 mg/kg
  AUCINF-brain: 21015 ng·h/g
  AUClast-brain: 19737 ng·h/g
  Cmax: 1490 ng/g
  Tmax: 4 h
  half-life: 5.87 h
[3]; brain, IP 10 mg/kg
  AUCINF-brain: 87609 ng·h/g
  AUClast-brain: 78978 ng·h/g
  Cmax: 5320 ng/g
  Tmax: 4 h
  half-life: 7.13 h
[3]; brain, PO 3 mg/kg
  AUCINF-brain: 10651 ng·h/g
  AUClast-brain: 10019 ng·h/g
  Cmax: 743 ng/g
  Tmax: 4 h
  half-life: 5.8 h
[3]; brain, PO 10 mg/kg
  AUCINF-brain: 58481 ng·h/g
  AUClast-brain: 53716 ng·h/g
  Cmax: 3650 ng/g
  Tmax: 8 h
  half-life: 6.76 h
[3]; IP 3 mg/kg
  Kp: 15.1
[3]; IP 10 mg/kg
  Kp: 15.9
[3]; PO 3 mg/kg
  Kp: 6.81
[3]; PO 10 mg/kg
  Kp: 10.8
[3]; plasma, IP 3 mg/kg
  AUC(0-inf): 1320 ng·h/mL
  AUC(0-t): 1310 ng·h/mL
  Cmax: 318 ng/mL
  Tmax: 0.5 h
  half-life: 3.88 h
[3]; plasma, IP 10 mg/kg
  AUC(0-inf): 5040 ng·h/mL
  AUC(0-t): 4960 ng·h/mL
  Cmax: 1020 ng/mL
  Tmax: 0.25 h
  half-life: 4.2 h
[3]; plasma, PO 3 mg/kg
  AUC(0-inf): 1480 ng·h/mL
  AUC(0-t): 1470 ng·h/mL
  Cmax: 135 ng/mL
  Tmax: 2 h
  half-life: 3.44 h
[3]; plasma, PO 10 mg/kg
  AUC(0-inf): 5060 ng·h/mL
  AUC(0-t): 4990 ng·h/mL
  Cmax: 561 ng/mL
  Tmax: 1 h
  half-life: 4.08 h
